Where two headings read alike, the source gives them in different places.
Key:
[1] = Tolerability / body weight change on oral dosing in tumor-bearing mice; assay type: in vivo
Experimental: (§1) Compound 1 was dosed at 20, 50, or 100 mg/kg/day and was formulated in PEG400 (20% v/v)+80% v/v SBECD (25% w/v) in ddH2O. […] Body weight and MTV were measured on a 2× weekly schedule. Statistical analysis was performed using a one-way ANOVA. Data are expressed as MTV±SEM.
as §1, with “1 and Compound 2 were” for “1 was”, “one-way ANOVA followed by Dunnett's multiple comparison test.” for “one-way ANOVA.”
2×10^5 luciferase-expressing NCI-H1975-luc tumor cells suspended in 2 μL RPMI-1640 media were injected into the right forebrain of female BALB/c nude mice. Tumor growth was monitored using imaging analysis. Mice were injected intraperitoneally with 15 mg/mL of D-luciferin and anesthetized with 1-2% isoflurane inhalation. 10 minutes post luciferin injection, mice were imaged using IVIS Lumina III (Perkin Elmer) and total bioluminescence signal (BLI, photons/s) was measured in a region of interest (ROI). BLI from ROI were quantified and used as an indicator of tumor burden. […] Body weight and MTV were measured on a 2× weekly schedule. Statistical analysis was calculated using the Mann-Whitney U test. Data are expressed as bioluminescent signal (photons/s). […]

EGFR L858R = EGFR L858R (Homo sapiens, UniProt P00533, L858R); experiment: EGFR degradation, Total EGFR (L858R-specific) HTRF, NCI-H3255; assay type: cell-based; parameters: NCI-H3255 (harboring EGFR heterozygous L858R mutation); host or cells: NCI-H3255; conditions: 6 hours
Chain of EGFR L858R (P00533 25-1210 L858R): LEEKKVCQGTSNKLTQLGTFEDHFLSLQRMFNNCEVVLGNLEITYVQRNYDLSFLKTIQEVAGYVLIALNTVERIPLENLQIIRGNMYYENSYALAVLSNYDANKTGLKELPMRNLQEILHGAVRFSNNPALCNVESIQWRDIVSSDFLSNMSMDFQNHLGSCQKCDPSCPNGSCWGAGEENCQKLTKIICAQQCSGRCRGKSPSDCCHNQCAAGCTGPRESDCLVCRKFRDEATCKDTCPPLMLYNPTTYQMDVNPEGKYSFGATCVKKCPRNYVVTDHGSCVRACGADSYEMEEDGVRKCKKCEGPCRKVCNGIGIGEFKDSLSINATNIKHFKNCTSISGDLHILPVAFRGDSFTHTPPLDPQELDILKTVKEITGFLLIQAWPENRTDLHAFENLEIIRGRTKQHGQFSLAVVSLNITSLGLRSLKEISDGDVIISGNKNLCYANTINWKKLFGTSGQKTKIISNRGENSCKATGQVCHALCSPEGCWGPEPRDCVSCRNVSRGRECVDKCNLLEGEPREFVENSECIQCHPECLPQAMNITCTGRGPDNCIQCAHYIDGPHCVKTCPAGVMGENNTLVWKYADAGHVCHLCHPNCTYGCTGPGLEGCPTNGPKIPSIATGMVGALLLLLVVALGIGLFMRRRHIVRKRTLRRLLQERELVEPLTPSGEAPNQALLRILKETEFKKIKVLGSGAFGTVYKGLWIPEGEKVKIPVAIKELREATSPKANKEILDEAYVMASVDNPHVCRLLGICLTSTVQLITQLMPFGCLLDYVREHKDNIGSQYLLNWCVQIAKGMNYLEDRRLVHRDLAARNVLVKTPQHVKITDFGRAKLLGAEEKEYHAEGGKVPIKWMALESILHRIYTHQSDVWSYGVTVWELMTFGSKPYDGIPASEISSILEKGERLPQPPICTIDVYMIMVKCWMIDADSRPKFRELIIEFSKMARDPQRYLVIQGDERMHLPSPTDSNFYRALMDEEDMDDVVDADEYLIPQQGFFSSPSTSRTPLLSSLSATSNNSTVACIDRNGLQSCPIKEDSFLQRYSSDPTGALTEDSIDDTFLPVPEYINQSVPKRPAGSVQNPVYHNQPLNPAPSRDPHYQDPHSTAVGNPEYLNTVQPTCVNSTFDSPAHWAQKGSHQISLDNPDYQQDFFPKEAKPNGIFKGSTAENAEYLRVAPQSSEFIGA
Summary of the method: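 FRET signal from HTRF kits measured phospho-EGFR at pY1068 or total EGFR after 6 h treatment at 37 °C. Compounds ran as 11-point half-log dilutions from 10 μM in duplicate, in cells in phenol red-free RPMI with 10% FBS. Concentrations giving 50% inhibition or degradation were reported as IC50 or DC50.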

[2] = H3255 (L858R), read-out: tEGFR DC50
[3] = Table 9A, NCI-H3255 cells, Total EGFR HTRF, read-out: H3255 EGFR DC50

Row | SMILES | tolerability of oral dosing [1] | DC50 (EGFR L858R; [2]) [nM] | DC50 (EGFR L858R; [3]) [nM]
1 | O=C1CC[C@H](Nc2ccc(N3CCC(O)(CC(=O)N4CC5(C4)CN(c4ccc(-c6cc(F)c7c(c6)C(=O)N(C(C(=O)Nc6nccs6)c6ncn8c6CCC8)C7)cc4)C5)CC3)c(F)c2)C(=O)N1 (stereo partly drawn) [Compound 1, 2-(6,7-dihydro-5H-pyrrolo[1,2-c]imidazol-1-yl)-2-[6-[4-[2-[2-[1-[4-[[(3S)-2,6-dioxo-3-piperidyl]amino]-2-fluoro-phenyl]-4-hydroxy-4-piperidyl]acetyl]-2,6-diazaspiro[3.3]heptan-6-yl]phenyl]-4-fluoro-1-oxo-isoindolin-2-yl]-N-thiazol-2-yl-acetamide] | well tolerated | 5 | < 50
2 | Cn1nc(N2CCC(=O)NC2=O)c2ccc([C@H]3CCN(CC(=O)N4CC5(C4)CN(c4ccc(-c6cc(F)c7c(c6)C(=O)N(C(C(=O)Nc6nccs6)c6ncn8c6CCC8)C7)cc4)C5)CC3(F)F)cc21 (stereo partly drawn) [Compound 2, 2-(6,7-dihydro-5H-pyrrolo[1,2-c]imidazol-1-yl)-2-[6-[4-[2-[2-[(4R)-4-[3-(2,4-dioxohexahydropyrimidin-1-yl)-1-methyl-indazol-6-yl]-3,3-difluoro-1-piperidyl]acetyl]-2,6-diazaspiro[3.3]heptan-6-yl]phenyl]-4-fluoro-1-oxo-isoindolin-2-yl]-N-thiazol-2-yl-acetamide] | well tolerated | 6 | < 50
